From ChEMBL document CHEMBL1955771, “VX-322: a novel dual receptor tyrosine kinase inhibitor for the treatment of acute myelogenous leukemia” (J Med Chem, 2012)

Tests used:
[1] = molecular target: Vascular endothelial growth factor receptor 2 (Homo sapiens, UniProt P35968); assay: Inhibition of KDR
[2] = molecular target: T1, Mast/stem cell growth factor receptor Kit (Homo sapiens, UniProt P10721); assay: Inhibition of human recombinant c-Kit by radiometric assay
[3] = molecular target: T2, Receptor-type tyrosine-protein kinase FLT3 (Homo sapiens, UniProt P36888); assay: Inhibition of human recombinant FLT3 by radiometric assay
T2 sequence (P36888 whole entry): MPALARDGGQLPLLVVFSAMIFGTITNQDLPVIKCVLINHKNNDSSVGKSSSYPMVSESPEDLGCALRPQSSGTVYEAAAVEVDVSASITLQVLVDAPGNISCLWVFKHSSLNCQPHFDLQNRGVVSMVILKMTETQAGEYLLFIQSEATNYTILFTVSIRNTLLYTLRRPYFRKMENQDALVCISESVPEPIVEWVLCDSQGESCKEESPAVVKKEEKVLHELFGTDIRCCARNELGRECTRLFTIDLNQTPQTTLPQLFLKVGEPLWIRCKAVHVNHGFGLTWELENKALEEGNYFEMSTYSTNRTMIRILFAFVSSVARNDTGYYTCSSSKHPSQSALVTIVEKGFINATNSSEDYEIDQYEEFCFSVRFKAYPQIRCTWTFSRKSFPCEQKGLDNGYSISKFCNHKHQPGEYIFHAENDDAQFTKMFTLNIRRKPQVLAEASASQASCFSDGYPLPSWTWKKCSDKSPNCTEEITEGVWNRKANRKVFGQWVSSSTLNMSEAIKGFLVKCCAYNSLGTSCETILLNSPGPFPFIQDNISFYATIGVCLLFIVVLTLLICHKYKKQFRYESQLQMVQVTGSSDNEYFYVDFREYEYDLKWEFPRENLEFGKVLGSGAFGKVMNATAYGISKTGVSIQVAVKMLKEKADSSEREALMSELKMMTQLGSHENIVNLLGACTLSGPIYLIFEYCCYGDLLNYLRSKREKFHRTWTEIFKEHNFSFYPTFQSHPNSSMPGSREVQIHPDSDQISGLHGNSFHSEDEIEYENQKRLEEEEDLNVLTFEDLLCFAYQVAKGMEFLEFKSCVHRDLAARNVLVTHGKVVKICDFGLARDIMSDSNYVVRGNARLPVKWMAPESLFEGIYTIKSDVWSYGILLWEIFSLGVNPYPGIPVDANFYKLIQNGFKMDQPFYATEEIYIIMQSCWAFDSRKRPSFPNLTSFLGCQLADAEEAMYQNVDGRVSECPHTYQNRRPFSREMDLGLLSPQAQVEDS

MV4-11 [4] = assay: Induction of apoptosis in human MV4-11 cells at 100 nM assessed as late apoptotic cells after 24 hrs by annexin V and propidium iodide staining method (reference value: 5.1 %); assay type: functional
MV4-11 [5] = assay: Induction of apoptosis in human MV4-11 cells at 100 nM assessed as prenecrotic cells after 24 hrs by annexin V and propidium iodide staining method (reference value: 90.3 %); assay type: functional
MV4-11 [6] = assay: Induction of apoptosis in human MV4-11 cells at 100 nM assessed as apoptotic cells after 48 hrs by annexin V and propidium iodide staining method (reference value: 2.1 %); assay type: functional
MV4-11 [7] = assay: Induction of apoptosis in human MV4-11 cells at 100 nM assessed as late apoptotic cells after 48 hrs by annexin V and propidium iodide staining method (reference value: 3.4 %); assay type: functional
[8] = system: Receptor-type tyrosine-protein kinase FLT3 (Homo sapiens), P36888 [UNDEFINED MUTATION]; assay: (§1) Inhibition of FLT3 ITD mutant autophosphorylation in human MV4-11 cells after 1 hr by immunoblot analysis; assay type: cell-based
[9] = molecular target: T3, Receptor-type tyrosine-protein kinase FLT3 (Homo sapiens, UniProt P36888, ITD); assay: as §1; assay type: cell-based
[10] = molecular target: T3, Receptor-type tyrosine-protein kinase FLT3; assay: Inhibition of FLT3 ITD mutant mediated ERK 1/2 phosphorylation in human MV4-11 cells by immunoblot analysis; assay type: cell-based
[11] = molecular target: T3, Receptor-type tyrosine-protein kinase FLT3; assay: Inhibition of FLT3 ITD mutant mediated Stat5 phosphorylation in human MV4-11 cells by immunoblot analysis; assay type: cell-based
[12] = molecular target: T1, Mast/stem cell growth factor receptor Kit; assay: Inhibition of SCF-induced phosphorylation of c-KIT in human TF1 cells after 1 hr by immunoblot analysis; assay type: cell-based, TF-1
[13] = molecular target: T1, Mast/stem cell growth factor receptor Kit; assay: Inhibition of c-KIT-mediated ERK 1/2 phosphorylation in human TF1 cells at 4 to 12 nM after 1 hr by immunoblot analysis; assay type: cell-based, TF-1
BaF3 [14] = assay: Antitumor activity against mouse BA/F3 cells expressing FLT3-ITD mutant xenografted in BALB/c mouse myeloproliferative model assessed as increase in host survival days at 1 mg/kg, po qd relative to control (reference value: 20 days); assay type: functional, organism-based; set-up: dose 1 mg/kg
BaF3 [15] = assay: Antitumor activity against mouse BA/F3 cells expressing FLT3-ITD mutant xenografted in BALB/c mouse myeloproliferative model assessed as increase in host survival days at 0.25 mg/kg, po qd relative to control (reference value: 20 days); assay type: functional, organism-based; set-up: dose 0.25 mg/kg
Mus musculus [16] = assay: Plasma concentration at steady state in BALB/c mouse xenografted with BA/F3 cells expressing FLT3-ITD mutant at 5 mg/kg, po qd; assay type: ADME, organism-based, BaF3; set-up: dose 5 mg/kg, route oral; settings: in vivo
Mus musculus [17] = assay: Plasma concentration at steady state in BALB/c mouse xenografted with BA/F3 cells expressing FLT3-ITD mutant at 0.25 mg/kg, po qd; assay type: ADME, organism-based, BaF3; set-up: dose 0.25 mg/kg, route oral; settings: in vivo
Mus musculus [18] = assay: Plasma concentration at steady state in BALB/c mouse xenografted with BA/F3 cells expressing FLT3-ITD mutant at 0.05 mg/kg, po qd; assay type: ADME, organism-based, BaF3; set-up: dose 0.05 mg/kg, route oral; settings: in vivo
[19] = Half life in BALB/c mouse; assay type: ADME, organism-based; settings: in vivo
Mus musculus [20] = species on record: Mus musculus; assay: Toxicity in BALB/c mouse assessed as change in body weight after 100 days; assay type: organism-based; settings: in vivo, 2400 h
Mus musculus [21] = species on record: Mus musculus; assay: Toxicity in BALB/c mouse assessed as signs of anemia after 100 days; assay type: organism-based; settings: in vivo, 2400 h
Mus musculus [22] = species on record: Mus musculus; assay: Toxicity in BALB/c mouse assessed as signs of neutropenia after 100 days; assay type: organism-based; settings: in vivo, 2400 h
BaF3 [23] = assay: Antitumor activity against mouse BA/F3 cells expressing FLT3-ITD mutant xenografted in BALB/c mouse myeloproliferative model assessed as increase in host survival days administered by oral gavage qd relative to control; assay type: functional
TF-1 [24] = assay: cells; settings: Homo sapiens, TF-1, 72 h
Description: Cytotoxicity against human TF1 cells expressing wild type c-KIT assessed as cell viability after 72 hrs by resazurin dye based fluorescence assay

TF-1 [25] = assay: cells; settings: Homo sapiens, TF-1, 72 h; remark: listed apart in the source
Description: Cytotoxicity against human TF1 cells expressing PDGFR-beta assessed as cell viability after 72 hrs by resazurin dye based fluorescence assay

TF-1 [26] = assay: cells; settings: Homo sapiens, TF-1, 72 h; remark: listed apart in the source
Description: Cytotoxicity against human TF1 cells expressing FMS assessed as cell viability after 72 hrs by resazurin dye based fluorescence assay

MV4-11 [27] = assay: cells; settings: Homo sapiens, MV4-11, 72 h
Description: Cytotoxicity against human MV4-11 cells expressing FLT3-ITD mutation assessed as cell viability after 72 hrs by resazurin dye based fluorescence assay

Kasumi 1 = assay: cells; settings: Homo sapiens, Kasumi 1, 72 h
Description: Cytotoxicity against human Kasumi-1 cells expressing c-KIT assessed as cell viability after 72 hrs by resazurin dye based fluorescence assay

THP-1 = assay: cells; settings: Homo sapiens, THP-1, 72 h
Description: Cytotoxicity against human THP1 cells assessed as cell viability after 72 hrs by resazurin dye based fluorescence assay

cells [28] = settings: Homo sapiens, Leukemia cell, 72 h
Description: Cytotoxicity against human primary leukemia cells isolated from acute myeloid leukemia patient expressing wild type FLT3 assessed as cell viability after 72 hrs by luciferase assay

cells [29] = settings: Homo sapiens, Leukemia cell, 72 h; remark: listed apart in the source
Description: Cytotoxicity against human primary leukemia cells isolated from acute myeloid leukemia patient expressing FLT3-ITD mutation assessed as cell viability after 72 hrs by luciferase assay

T1 sequence (P10721 whole entry): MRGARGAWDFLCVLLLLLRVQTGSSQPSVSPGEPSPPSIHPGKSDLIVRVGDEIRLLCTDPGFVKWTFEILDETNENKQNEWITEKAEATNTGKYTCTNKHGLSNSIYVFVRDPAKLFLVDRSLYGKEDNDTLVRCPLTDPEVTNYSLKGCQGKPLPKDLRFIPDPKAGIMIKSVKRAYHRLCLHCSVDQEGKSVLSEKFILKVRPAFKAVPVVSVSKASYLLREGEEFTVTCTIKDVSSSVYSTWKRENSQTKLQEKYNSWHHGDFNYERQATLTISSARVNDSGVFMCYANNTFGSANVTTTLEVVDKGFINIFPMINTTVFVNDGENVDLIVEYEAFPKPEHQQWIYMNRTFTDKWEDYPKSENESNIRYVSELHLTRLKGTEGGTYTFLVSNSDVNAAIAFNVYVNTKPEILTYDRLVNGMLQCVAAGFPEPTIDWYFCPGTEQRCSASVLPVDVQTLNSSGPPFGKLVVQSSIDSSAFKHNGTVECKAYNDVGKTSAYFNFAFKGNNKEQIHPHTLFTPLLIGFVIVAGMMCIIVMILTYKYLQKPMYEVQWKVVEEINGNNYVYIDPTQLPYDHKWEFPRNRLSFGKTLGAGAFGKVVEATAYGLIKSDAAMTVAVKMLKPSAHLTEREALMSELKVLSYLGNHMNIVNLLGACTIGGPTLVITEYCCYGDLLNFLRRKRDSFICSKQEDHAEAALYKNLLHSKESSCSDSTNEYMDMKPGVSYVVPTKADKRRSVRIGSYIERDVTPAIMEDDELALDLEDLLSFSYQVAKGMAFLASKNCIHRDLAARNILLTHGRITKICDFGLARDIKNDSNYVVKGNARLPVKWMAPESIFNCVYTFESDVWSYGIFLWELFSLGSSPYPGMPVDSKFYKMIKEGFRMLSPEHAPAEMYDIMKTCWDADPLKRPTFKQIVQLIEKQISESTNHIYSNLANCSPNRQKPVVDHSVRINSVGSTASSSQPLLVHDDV
Sequence of Vascular endothelial growth factor receptor 2 (P35968 whole entry): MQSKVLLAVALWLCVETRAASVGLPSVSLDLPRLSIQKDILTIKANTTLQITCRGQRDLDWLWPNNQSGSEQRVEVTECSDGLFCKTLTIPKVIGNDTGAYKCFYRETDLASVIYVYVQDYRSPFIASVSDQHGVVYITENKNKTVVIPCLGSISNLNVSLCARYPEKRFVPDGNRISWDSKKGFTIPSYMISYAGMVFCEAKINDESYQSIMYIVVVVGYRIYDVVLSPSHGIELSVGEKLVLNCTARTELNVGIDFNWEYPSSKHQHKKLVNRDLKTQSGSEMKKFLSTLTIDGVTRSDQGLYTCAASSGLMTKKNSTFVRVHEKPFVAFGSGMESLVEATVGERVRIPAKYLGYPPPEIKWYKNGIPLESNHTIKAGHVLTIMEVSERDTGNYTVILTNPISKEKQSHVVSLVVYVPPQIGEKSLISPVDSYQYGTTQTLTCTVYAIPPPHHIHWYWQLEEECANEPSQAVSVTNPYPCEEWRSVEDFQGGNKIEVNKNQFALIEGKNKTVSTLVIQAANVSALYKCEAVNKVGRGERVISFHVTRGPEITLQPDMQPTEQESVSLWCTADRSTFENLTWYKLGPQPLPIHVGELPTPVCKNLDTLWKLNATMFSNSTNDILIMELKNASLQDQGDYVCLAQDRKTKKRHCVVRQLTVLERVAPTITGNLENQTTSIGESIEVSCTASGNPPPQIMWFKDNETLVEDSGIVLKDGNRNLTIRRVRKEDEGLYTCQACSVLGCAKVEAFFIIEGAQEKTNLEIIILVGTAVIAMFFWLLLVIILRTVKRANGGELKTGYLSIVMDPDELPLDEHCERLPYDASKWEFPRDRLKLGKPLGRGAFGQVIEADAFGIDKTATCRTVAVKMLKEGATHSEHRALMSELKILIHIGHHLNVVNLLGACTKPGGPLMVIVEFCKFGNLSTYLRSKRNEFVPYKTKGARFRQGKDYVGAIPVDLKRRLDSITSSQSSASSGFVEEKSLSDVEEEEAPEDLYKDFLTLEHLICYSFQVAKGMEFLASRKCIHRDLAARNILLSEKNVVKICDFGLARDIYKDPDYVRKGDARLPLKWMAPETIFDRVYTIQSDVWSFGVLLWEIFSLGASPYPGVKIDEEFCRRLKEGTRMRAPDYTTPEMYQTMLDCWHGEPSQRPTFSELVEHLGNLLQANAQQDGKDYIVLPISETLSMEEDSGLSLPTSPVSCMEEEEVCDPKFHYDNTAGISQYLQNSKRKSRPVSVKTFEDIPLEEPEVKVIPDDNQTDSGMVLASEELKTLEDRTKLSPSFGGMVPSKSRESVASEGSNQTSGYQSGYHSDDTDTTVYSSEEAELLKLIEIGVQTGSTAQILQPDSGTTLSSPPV

Nc1nc(Nc2ccc([C@H]3CC[C@H](N4CCOCC4)CC3)cc2)nn1-c1ccccn1
Ki [1]: 85 nM
Ki [2]: < 1 nM
Ki [3]: 0.17 nM
Activity (MV4-11 [4]): 32.5%
Activity (MV4-11 [5]): 54.5%
Activity (MV4-11 [6]): 26.3%
Activity (MV4-11 [7]): 42.8%
inhibition [8]: Dose-dependent effect
IC50 [9]: 0.4 nM
IC50 [10]: 1.3 nM
IC50 [11]: 1.3 nM
IC50 [12]: 4 nM
inhibition ([12]; TF-1): Dose-dependent effect
IC50 [13]: 4 nM
MSD (BaF3 [14]): 34 days
MSD (BaF3 [15]): 25 days
Cpss (Mus musculus [16]): 641 ng/mL
Cpss (Mus musculus [17]): 22 ng/mL
Cpss (Mus musculus [18]): 4 ng/mL
half-life [19]: 15 h
Activity (Mus musculus [20]): Non-toxic
Activity (Mus musculus [21]): Non-toxic
Activity (Mus musculus [22]): Non-toxic
Activity (BaF3 [23]): Dose-dependent effect
IC50 (TF-1 [24]): 1.6 nM
IC50 (TF-1 [25]): 330 nM
IC50 (TF-1 [26]): > 4000 nM
IC50 (MV4-11 [27]): 0.2 nM
IC50 (Kasumi 1): 30 nM
IC50 (THP-1): > 4000 nM
IC50 (cells [28]): 20 nM
IC50 (cells [29]): 12 nM
